Measurements as given in ChEMBL document CHEMBL3045133, “A 2D image-based method for modeling some c-Src tyrosine kinase inhibitors” (Med Chem Res, 2013).

Target: Proto-oncogene tyrosine-protein kinase Src (Homo sapiens, UniProt P12931)
Experiment: Inhibition of c-Src kinase (unknown origin)

Chain of Proto-oncogene tyrosine-protein kinase Src (P12931 2-536 limits assumed): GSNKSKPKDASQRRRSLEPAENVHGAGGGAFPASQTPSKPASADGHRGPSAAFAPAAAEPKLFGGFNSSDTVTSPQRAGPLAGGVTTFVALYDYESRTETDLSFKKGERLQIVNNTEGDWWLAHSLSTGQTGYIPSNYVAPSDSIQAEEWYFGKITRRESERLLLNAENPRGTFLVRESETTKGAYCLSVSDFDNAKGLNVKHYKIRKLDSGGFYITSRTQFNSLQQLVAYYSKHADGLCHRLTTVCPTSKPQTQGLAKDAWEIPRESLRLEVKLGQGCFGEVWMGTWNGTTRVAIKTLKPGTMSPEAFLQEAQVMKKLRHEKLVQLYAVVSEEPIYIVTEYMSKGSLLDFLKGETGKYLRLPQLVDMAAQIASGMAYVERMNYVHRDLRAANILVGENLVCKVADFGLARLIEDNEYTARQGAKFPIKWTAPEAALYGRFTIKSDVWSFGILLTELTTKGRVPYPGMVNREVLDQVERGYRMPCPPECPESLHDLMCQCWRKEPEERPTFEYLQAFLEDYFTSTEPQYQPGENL

Compound Cc1ccccc1-c1cn(-c2ccccc2)c2ncnc(N)c12 has an IC50 of 6.31 µM.
